In PubChem BioAssay AID1919006 (Molecular Pharmacology Branch, DTP, NCI, 2023):

Test system: 885512-296-R-J2-PDC complex spheroid growth, % test/control
Experiment: Anticancer human tumor 885512-296-R-J2-PDC patient-derived breast carcinoma cell line growth inhibition [AhR]
Conditions: for IC50: curve of first compound; for viability, T/C: stronger effect = lower value
Summary of the method: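 Agents were dosed in half-log steps down from roughly clinical Cmax, or from 10 microM where Cmax was unknown, alone and with AhR antagonists. Read-out: percent test/control growth of tumor spheroids containing HUVEC and MSC stromal cells.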

[1] = second compound 0.1 µM, first compound 0.0316 µM
[2] = second compound 0.1 µM, first compound 0.1 µM
[3] = second compound 0.1 µM, first compound 0.316 µM
[4] = second compound 0.1 µM, first compound 1 µM
[5] = second compound 0.1 µM, first compound 3.16 µM
[6] = second compound 0.1 µM, first compound 10 µM
[7] = second compound 0.316 µM, first compound 0.0316 µM
[8] = second compound 0.316 µM, first compound 0.1 µM
[9] = second compound 0.316 µM, first compound 0.316 µM
[10] = second compound 0.316 µM, first compound 1 µM
[11] = second compound 0.316 µM, first compound 3.16 µM
[12] = second compound 0.316 µM, first compound 10 µM
[13] = second compound 1 µM, first compound 0.0316 µM
[14] = second compound 1 µM, first compound 0.1 µM
[15] = second compound 1 µM, first compound 0.316 µM
[16] = second compound 1 µM, first compound 1 µM
[17] = second compound 1 µM, first compound 3.16 µM
[18] = second compound 1 µM, first compound 10 µM
[19] = second compound 3.16 µM, first compound 0.0316 µM
[20] = second compound 3.16 µM, first compound 0.1 µM
[21] = second compound 3.16 µM, first compound 0.316 µM
[22] = second compound 3.16 µM, first compound 1 µM
[23] = second compound 3.16 µM, first compound 3.16 µM
[24] = second compound 3.16 µM, first compound 10 µM
[25] = second compound 10 µM, first compound 0.0316 µM
[26] = second compound 10 µM, first compound 0.1 µM
[27] = second compound 10 µM, first compound 0.316 µM
[28] = second compound 10 µM, first compound 1 µM
[29] = second compound 10 µM, first compound 3.16 µM
[30] = second compound 10 µM, first compound 10 µM
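Also: spheroids exposed to compounds for seven days.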

Compound | IC50 (second compound 0.1 µM) [nM] | IC50 (second compound 0.316 µM) [nM] | IC50 (second compound 1 µM) [nM] | IC50 (second compound 3.16 µM) [nM] | IC50 (second compound 10 µM) [nM] | viability, T/C [1] [%] | viability, T/C [2] [%] | viability, T/C [3] [%] | viability, T/C [4] [%] | viability, T/C [5] [%] | viability, T/C [6] [%] | viability, T/C [7] [%] | viability, T/C [8] [%] | viability, T/C [9] [%] | viability, T/C [13] [%] | viability, T/C [14] [%] | viability, T/C [19] [%] | viability, T/C [20] [%] | viability, T/C [25] [%] | viability, T/C [26] [%] | also measured
CC1(C)CCC(CN2CCN(c3ccc(C(=O)NS(=O)(=O)c4ccc(NCC5CCOCC5)c([N+](=O)[O-])c4)c(Oc4cnc5[nH]ccc5c4)c3)CC2)=C(c2ccc(Cl)cc2)C1 + CC(CO)NC(=O)c1cc(-c2ccc(Cl)cc2)nn(-c2cnn(C)c2)c1=O | 6340 | 7190 | 7580 | 7840 | 8440 | 111 | 105 | 102 | 91.7 | 70.7 | 36.4 | 96.3 | 111 | 100 | 96.7 | 108 | 102 | 118 | 106 | 99.4 | viability, T/C [10]: 96.5%; viability, T/C [11]: 70.6%; viability, T/C [12]: 41.7%; viability, T/C [15]: 112%; viability, T/C [16]: 99.7%; viability, T/C [17]: 78.6%; viability, T/C [18]: 41%; viability, T/C [21]: 103%; viability, T/C [22]: 100%; viability, T/C [23]: 81.5%; viability, T/C [24]: 41.6%; viability, T/C [27]: 103%; viability, T/C [28]: 103%; viability, T/C [29]: 90.8%; viability, T/C [30]: 42.6%
Cn1ncnc1C1c2n[nH]c(=O)c3cc(F)cc(c23)NC1c1ccc(F)cc1 (stereo not given) + CC(CO)NC(=O)c1cc(-c2ccc(Cl)cc2)nn(-c2cnn(C)c2)c1=O | > 100 | > 100 | > 100 | > 100 | > 100 | 87.1 | 69.1 |  |  |  |  | 73 | 63.9 |  | 79.1 | 64.7 | 84.9 | 64.6 | 67.1 | 51.1 | viability, T/C (second compound 0.1 µM, first compound 0.000316 µM): 107%; viability, T/C (second compound 0.1 µM, first compound 0.001 µM): 108%; viability, T/C (second compound 0.1 µM, first compound 0.00316 µM): 103%; viability, T/C (second compound 0.1 µM, first compound 0.01 µM): 96.6%; viability, T/C (second compound 0.316 µM, first compound 0.000316 µM): 102%; viability, T/C (second compound 0.316 µM, first compound 0.001 µM): 96.9%; viability, T/C (second compound 0.316 µM, first compound 0.00316 µM): 98.5%; viability, T/C (second compound 0.316 µM, first compound 0.01 µM): 107%; viability, T/C (second compound 1 µM, first compound 0.000316 µM): 104%; viability, T/C (second compound 1 µM, first compound 0.001 µM): 96.4%; viability, T/C (second compound 1 µM, first compound 0.00316 µM): 101%; viability, T/C (second compound 1 µM, first compound 0.01 µM): 89.3%; viability, T/C (second compound 3.16 µM, first compound 0.000316 µM): 90.1%; viability, T/C (second compound 3.16 µM, first compound 0.001 µM): 101%; viability, T/C (second compound 3.16 µM, first compound 0.00316 µM): 107%; viability, T/C (second compound 3.16 µM, first compound 0.01 µM): 82.9%; viability, T/C (second compound 10 µM, first compound 0.000316 µM): 96.7%; viability, T/C (second compound 10 µM, first compound 0.001 µM): 97.9%; viability, T/C (second compound 10 µM, first compound 0.00316 µM): 88.9%; viability, T/C (second compound 10 µM, first compound 0.01 µM): 79.2%
NS(=O)(=O)OCC1CC(n2ccc3c(NC4CCc5ccccc54)ncnc32)CC1O (stereo not given) + CC(CO)NC(=O)c1cc(-c2ccc(Cl)cc2)nn(-c2cnn(C)c2)c1=O | 97 | 98.9 | 101 | 89.1 | 58.7 | 111 | 48.4 | 15 | 7.66 | 6.85 | 5.35 | 97.6 | 49.5 | 15.9 | 106 | 50.3 | 84.1 | 46.1 | 65.6 | 36.1 | viability, T/C [10]: 7.66%; viability, T/C [11]: 5.71%; viability, T/C [12]: 6.67%; viability, T/C [15]: 17.3%; viability, T/C [16]: 7.69%; viability, T/C [17]: 7.18%; viability, T/C [18]: 7.68%; viability, T/C [21]: 16.7%; viability, T/C [22]: 7.54%; viability, T/C [23]: 7.16%; viability, T/C [24]: 7.08%; viability, T/C [27]: 19.3%; viability, T/C [28]: 8.18%; viability, T/C [29]: 6.74%; viability, T/C [30]: 6.33%
